The source of these data is ChEMBL document CHEMBL1201862, “PubChem BioAssay data set” (2004).

Holding throughout (experiment): inhibition of tumour cell growth, NCI panel, 48 h
Test [1] deals with Malme-3M.
Test [2] concerns OVCAR-8.
The test system of test [3] is HCT-15.
The subject of test [4] is UACC-62.
Test [5] has as its system PC-3.
Test [6] relates to SK-OV-3.
Test [7] has as its system HL-60.
In test [8] the test system is TK-10.
Test [9] concerns DU-145.
Test [10] relates to NCI-H226.
The subject of test [11] is RXF 393.
Test [12] deals with HT-29.
The test system of test [13] is NCI-H23.
In test [14] the test system is SF-268.
Test [15] has as its system SK-MEL-5.
Test [16] deals with OVCAR-5.
Test [17] concerns SF-539.
Test [18] relates to HOP-92.
In test [19] the test system is BT-549.

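Cells were grown in 96-well plates and exposed to each compound for 48 hours at five concentrations; endpoints were interpolated linearly between bracketing concentrations, or set to the highest concentration if not reached. GI50: concentration for 50% inhibition of growth.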 Calls of active or inactive are those of the source. Cut-off read from the data, not from the text of the source: active = GI50 up to about 1.1 µM and inactive = higher. A value given as a limit tells only on which side of the number the result lay.

On to `CNC(=O)N1CN(c2ccccc2)C2(CCN(Cc3ccccc3)CC2)C1=O`, for which the GI50 in test [1] was 70.1 µM (inactive); in [2] it was > 100 µM (inactive); in [3], 15 µM; in test [4], 69.8 µM (inactive); in test [5], 93.1 µM (inactive); in [6] it was 4.18 µM (inactive). In addition, the GI50 in test [7] was 43.1 µM (inactive); in [8], 62.5 µM (inactive); in test [9], > 100 µM (inactive); in test [10] it was > 100 µM (inactive); in test [11], > 100 µM (inactive); in test [12], 15.6 µM (inactive). Also, the GI50 in test [13] was > 100 µM (inactive); in test [14] it was > 100 µM (inactive); in [15] it was 56.1 µM (inactive); in test [16], 1.05 µM (active); in test [17], 34.7 µM (inactive).

With `CCOC(CCCN1CCC2(CC1)C(=O)N(C)CN2c1ccccc1)(OCC)c1ccc(F)cc1`, the GI50 in [1] was 16.2 µM (inactive); in [2], 15.4 µM (inactive); in [3] it was 10.1 µM; in test [4] it was 16 µM (inactive); in test [5], 15.7 µM (inactive); in [6], 21.8 µM (inactive). The GI50 in test [7] is 13 µM (inactive); in test [8], 7.66 µM (inactive); in test [9], 6.87 µM (inactive); in test [10], 18.3 µM (inactive); in test [11] it was 19.2 µM (inactive); in test [12], 3.49 µM (inactive). The GI50 is 16.6 µM (inactive) in test [13]; 12.9 µM (inactive) in test [14]; 3.45 µM (inactive) in test [15]; 7.89 µM (inactive) in test [16]; 3.77 µM (inactive) in test [17].

With `Cc1cccc2oc3c(c(=O)c12)CC(O)C(C)(C)O3` (stereo not drawn), the GI50 in test [1] is > 100 µM (inactive); in [3], > 100 µM; in test [4], > 100 µM (inactive); in test [5] it was > 100 µM (inactive); in test [6], > 100 µM (inactive); in test [7] it was 23.9 µM (inactive). The GI50 in test [8] was > 100 µM (inactive); in test [9], > 100 µM (inactive); in test [10] it was > 100 µM (inactive); in [11] it was 74 µM (inactive); in test [12], > 100 µM (inactive); in [13], > 100 µM (inactive). Besides, the GI50 in test [14], in [18], in test [15], in test [16] and in test [17] was > 100 µM (inactive) each time.

For `COc1cc(NCc2ccc3nc(OC)c(OC)nc3c2)cc(OC)c1OC`, the GI50 is > 100 µM (inactive) in test [1]; > 100 µM (inactive) in test [2]; > 100 µM in [3]; > 100 µM (inactive) in [4]; 89.1 µM (inactive) in test [5]; > 100 µM (inactive) in test [6]. Moreover, the GI50 in [7], in test [9], in [10], in [11], in [12] and in test [13] was > 100 µM (inactive) throughout. Moreover, the GI50 in test [14], in test [18], in test [15], in test [16] and in [17] was > 100 µM (inactive) in each case.

Take `Cc1cc(CC(O)(C(F)(F)F)C(F)(F)F)cc(CC(O)(C(F)(F)F)C(F)(F)F)n1`: the GI50 is 1.56 µM (inactive) in test [1]; 3.48 µM (inactive) in test [2]; 4.08 µM in [3]; 3.57 µM (inactive) in test [4]; 2.9 µM (inactive) in test [5]; 3.02 µM (inactive) in test [7]. In addition, the GI50 was 4.7 µM (inactive) in [8]; 2.74 µM (inactive) in test [9]; 2.72 µM (inactive) in test [10]; 4.24 µM (inactive) in test [11]; 2.58 µM (inactive) in test [12]; 2.51 µM (inactive) in test [13]. In addition, the GI50 in test [14] was 2.7 µM (inactive); in [18] it was 2.55 µM (inactive); in test [15] it was 1.72 µM (inactive); in [16] it was 6.79 µM (inactive); in test [17], 3.43 µM (inactive).

In the case of `O=C1CCCC2=C1CC1=C(CCCC1=O)N2c1ccccc1`, the GI50 in test [2] is > 100 µM (inactive); in test [3] it was > 100 µM; in test [4], > 100 µM (inactive); in test [5], > 100 µM (inactive); in test [6], > 100 µM (inactive); in test [7] it was > 100 µM (inactive). Also, the GI50 in test [8] was > 100 µM (inactive); in [10] it was > 100 µM (inactive); in test [11], 40.7 µM (inactive); in test [12], > 100 µM (inactive); in test [13] it was > 100 µM (inactive); in [14], > 100 µM (inactive). The GI50 in test [18], in test [15], in test [16], in [19] and in test [17] was > 100 µM (inactive) in each case.

For `COc1cc2c[n+](C)c3c4ccccc4ccc3c2cc1OC`, the GI50 in test [1] is 1.55 µM (inactive); in [2], 2.71 µM (inactive); in test [3] it was > 100 µM; in test [4] it was 4.6 µM (inactive); in [5], 4.89 µM (inactive); in test [6], 6.08 µM (inactive). Also, the GI50 in test [8] was 26.7 µM (inactive); in [9], 3.8 µM (inactive); in [10] it was 2.94 µM (inactive); in [11] it was 14.6 µM (inactive); in test [12], 5.4 µM (inactive); in test [13], 2.6 µM (inactive). Moreover, the GI50 in test [14] was 0.224 µM (active); in test [15] it was 2.87 µM (inactive); in [16] it was 26.7 µM (inactive); in test [19], 2.92 µM (inactive); in [17], 6.17 µM (inactive).

In the case of `CC(=O)Oc1ccccc1-c1cc2ccccc2oc1=O`, the GI50 in [1] is > 100 µM (inactive); in [2], > 100 µM (inactive); in test [3] it was > 100 µM; in test [5] it was > 100 µM (inactive); in [7], > 100 µM (inactive); in test [9], > 100 µM (inactive). For the same molecule, the GI50 in test [10] is 31 µM (inactive); in test [12], > 100 µM (inactive); in test [13], 83.8 µM (inactive); in [14], > 100 µM (inactive); in test [16] it was > 100 µM (inactive); in [19], > 100 µM (inactive). In addition, in test [17], the GI50 is > 100 µM (inactive).

Regarding `COc1ccc(/C(Br)=C2\OC(=O)c3ccccc32)cc1`, the GI50 in test [2] was > 10 µM (inactive); in test [3], > 10 µM; in test [4], > 10 µM (inactive); in test [5] it was > 10 µM (inactive); in test [6], > 10 µM (inactive); in [7], > 10 µM (inactive). For the same molecule, the GI50 in test [8], in test [9], in [10], in [11], in [12] and in [13] was > 10 µM (inactive) each time. Further, the GI50 in test [14], in test [18], in test [15], in [16] and in [17] was > 10 µM (inactive) throughout.

Turning to `Cn1ncc2[nH]cnc2c1=S`, the GI50 in [2] is > 100 µM (inactive); in test [3], > 100 µM; in test [4], > 100 µM (inactive); in test [5] it was > 100 µM (inactive); in [7] it was 0.541 µM (active); in test [8], > 100 µM (inactive). Besides, the GI50 in [9] was > 100 µM (inactive); in [10], > 100 µM (inactive); in test [11], > 100 µM (inactive); in test [12], 57.7 µM (inactive); in [13], > 100 µM (inactive); in [14], > 100 µM (inactive). Further, the GI50 in test [15] was 82.4 µM (inactive); in [16], > 100 µM (inactive); in test [19], > 100 µM (inactive); in test [17], > 100 µM (inactive).

On to `C/C1=C\[C@H](C)C[C@H](C)OC(=O)C[C@H](c2ccc(O)cc2)NC(=O)[C@H](Cc2ccc(O)c(I)c2)N(C)C(=O)[C@H](C)NC(=O)[C@@H](C)C1`, for which the GI50 was 0.0118 µM (active) in [1]; 0.0137 µM (active) in test [2]; 0.234 µM in test [3]; 0.0428 µM (active) in [4]; 0.0608 µM (active) in test [5]; 0.054 µM (active) in test [6]. Further, the GI50 in [8] is 0.0586 µM (active); in test [9], 0.0183 µM (active); in [10] it was 0.0153 µM (active); in test [12], 0.00274 µM (active); in test [13] it was 2.79 µM (inactive); in [14] it was 0.011 µM (active). In addition, the GI50 is 0.0365 µM (active) in test [18], 0.0169 µM (active) in test [15] and 0.131 µM (active) in test [16].

On to `CC(=O)c1ccc2c(c1)C(=O)c1sc(C(C)=O)cc1C2=O`, for which the GI50 in [1] was 0.526 µM (active); in [2] it was 0.695 µM (active); in [3] it was 0.918 µM; in [4], 0.995 µM (active); in [5], 1.82 µM (inactive); in [6], 6.98 µM (inactive). In addition, the GI50 is 0.24 µM (active) in test [7]; 1.76 µM (inactive) in test [8]; 1.01 µM (active) in [9]; 1.04 µM (active) in [10]; 1.3 µM (inactive) in test [11]; 1.2 µM (inactive) in test [12]. For the same molecule, the GI50 in test [13] is 1.09 µM (active); in test [14], 1.17 µM (inactive); in test [18], 1.42 µM (inactive); in [15] it was 0.389 µM (active); in test [16] it was 1.08 µM (active); in test [17] it was 0.804 µM (active).
